The values below come from US20100298137A1, “ACTIVE INGREDIENT COMBINATIONS WITH INSECTICIDAL PROPERTIES” (BAYER CROPSCIENCE AG, priority 2006, published 2010).

Assay [1] deals with Myzus persicae. Nature of the assay: Myzus persicae test (cabbage leaves dipped into the preparation of active compound). Particulars: leaf dip. The format is in vivo. The text has this:
(§1) The expected activity for a given combination of two active compounds can be calculated according to S. R. Colby, Weeds 15 (1967), 20-22 as follows:
(§2) If • X is the kill rate, expressed in % of the untreated control, when active compound A is applied at an application rate of m g/ha or at a concentration of m ppm, • Y is the kill rate, expressed in % of the untreated control, when active compound B is applied at an application rate of n g/ha or at a concentration of n ppm and • E is the kill rate, expressed in % of the untreated control, when active compounds A and B is applied at application rates of m and n g/ha or at a concentration of m and n ppm, then
(§3) If the actual kill rate is greater than calculated, the kill of the combination is superadditive, i.e. there is a synergistic effect. In this case, the actual observed kill rate has to be greater than the value for the expected kill rate (E) calculated from the formula given above.
(§4) To produce a suitable preparation of active compound, 1 part by weight of active compound is mixed with the stated amounts of solvent and emulsifier, and the concentrate is diluted with emulsifier-containing water to the desired concentration.
Cabbage leaves (Brassica oleracea) which are heavily infested by the green peach aphid (Myzus persicae) are treated by being dipped into the preparation of active compound of the desired concentration.
(§5) After the desired period of time, the kill in % is determined. 100% means that all aphids have been killed; 0% means that none of the aphids have been killed. The kill rates determined are entered into the Colby formula (see sheet 1).

For assay [2], the system named is Aphis gossypii. As to the kind of experiment: Aphis gossypii test (cotton leaves dipped into the preparation of active compound). The format is in vivo. Conditions: leaf dip.
Excerpt: as §1, §2, §3, §4
Cotton leaves (Gossypium hirsutum) which are heavily infested by the cotton aphid (Aphis gossypii) are treated by being dipped into the preparation of active compound of the desired concentration.
as §5

On to `N#Cc1nn(-c2c(Cl)cc(C(F)(F)F)cc2Cl)c(N)c1[S+]([O-])C(F)(F)F` (centres unmarked) [fipronil], for which the “Kill in % after 6 d” value came out at 0% in assay [1] (4 ppm) and 70% in assay [2] (20 ppm).

Turning to spinosad, in assay [1] (100 ppm), the “Kill in % after 1 d” value amounted to 5% and the “Kill in % after 6 d” value is on record as 5%.

As for `Cc1cc(C(F)(C(F)(F)F)C(F)(F)F)ccc1NC(=O)c1cccc(I)c1C(=O)NC(C)(C)CS(C)(=O)=O` [flubendiamid, flubendiamide], the “Kill in % after 6 d” value in assay [1] (100 ppm) stood at 6%.

Turning to `COc1cccc(C(=O)NN(C(=O)c2cc(C)cc(C)c2)C(C)(C)C)c1C` [methoxyfenozide], the “Kill in % after 1 d” value in assay [1] (100 ppm) and in assay [2] (100 ppm) was 0% each time.

Consider `COC(=O)N(C(=O)N1COC2(C(=O)OC)Cc3cc(Cl)ccc3C2=N1)c1ccc(OC(F)(F)F)cc1` (centres unmarked) [indoxacarb], for which the “Kill in % after 6 d” value in assay [1] (100 ppm) was 20%. Further, the “Kill in % after 1 d” value in assay [2] (100 ppm) stood at 0%.

For the compound `CN(Cc1ccc(Cl)nc1)C1=CC(=O)OC1` [compound (Ia)], the “Kill in % after 1 d” value in assay [1] (0.16 ppm) is 10%; in assay [1] (0.8 ppm) it was 45%; in assay [2] (0.16 ppm), 20%; in assay [2] (0.8 ppm) it was 55%. Moreover, the figures for the “Kill in % after 6 d” value in assay [1] (0.16 ppm) and in assay [1] (0.8 ppm) were 0% and 50%, respectively.

With `O=C1C=C(N(Cc2ccc(Cl)nc2)C2CC2)CO1` [compound (Ib)], the “Kill in % after 6 d” value in assay [1] (0.16 ppm) was determined as 0%; in assay [1] (4 ppm), 33%; in assay [2] (0.16 ppm), 0%; in assay [2] (0.8 ppm) it was 50%. The “Kill in % after 1 d” value stood at 10% in assay [1] (0.8 ppm), 70% in assay [1] (4 ppm), 45% in assay [2] (0.8 ppm) and 80% in assay [2] (4 ppm).

As for emamectin benzoate, the “Kill in % after 1 d” value in assay [2] (20 ppm) is 10%.

Consider `FC(F)(F)c1ccc(OCCCOc2c(Cl)cc(OCC=C(Cl)Cl)cc2Cl)nc1` [pyridalyl], for which, in assay [1] (100 ppm), the “Kill in % after 6 d” value is given as 0%. Further, the “Kill in % after 1 d” value in assay [2] (100 ppm) worked out at 5%.

Regarding abamectin, in assay [1] (100 ppm), the “Kill in % after 1 d” value came to 55%.

With `CC(C)N1C(=O)N(c2ccccc2)CS/C1=N\C(C)(C)C` [buprofezin], the figures for the “Kill in % after 1 d” value in assay [1] (100 ppm) and in assay [2] (100 ppm) were 0% and 5%, respectively.

With `CNC(=O)c1cc(Cl)cc(C)c1NC(=O)c1cc(Br)nn1-c1ncccc1Cl` [rynaxapyr, 3-bromo-N-{4-chloro-2-methyl-6-[(methylamino)carbonyl]phenyl}-1-(3-chloropyridin-2-yl)-1H-pyrazole-5-carboxamide], the “Kill in % after 1 d” value in assay [1] (4 ppm) was 30%. Besides, the “Kill in % after 6 d” value in assay [2] (0.8 ppm) stood at 15%.

In the case of `CC[S+]([O-])c1c(C#N)nn(-c2c(Cl)cc(C(F)(F)F)cc2Cl)c1N` (centres unmarked) [ethiprole], the “Kill in % after 6 d” value in assay [2] (0.8 ppm) worked out at 30%.
